From US12702671B2, “Calcineurin inhibitors of the setron family for the treatment of hearing loss” (SENSORION, priority 2015, dated 2026)
Entries after “also recorded” stand apart in the source; their conditions may differ. Where a name gives a salt, the structure may show the parent alone.

Columns and labels:
[1] = system: acoustic trauma induced hearing loss; assay: Distortion product otoacoustic emissions (DPOAE) amplitudes after acoustic trauma; format: in vivo, Wistar rats; settings: for DPOAE amplitude loss from baseline to day 14 compared to placebo / recovery of DPOAE amplitudes from 24 h post trauma to day 14 compared to placebo: i.p. daily for 14 days after acoustic trauma, same doses as E4
Procedure: (§1) All experiments were performed using 7 week old male Wistar rats (CERJ, Le Genest, France) in accordance with the French Ministry of Agriculture regulations and European Community Council Directive no. 86/609/EEC, OJL 358. The rats were fed a standard diet ad libitum and maintained on a 12 h light-dark cycle.
(§2) Auditory Brainstem Reponses (ABR) and Distortion Product Otoacoustic Emissions (DPOAE) were recording using a RZ6 Auditory Workstation (Tucker-Davis Technologies, Alachua, FL, USA) with animals deeply anesthetized using 90 mg/kg ketamine and 10 mg/kg xylazine and placed on a 35° C. recirculating heating pad inside a sound attenuating cubicle (Med Associates Inc., St. Albans, VT, USA) throughout the experiment.
DPOAEs were recorded and using ER10B+ Low Noise DPOAE microphone (Etymotic Research, Inc., Elk Grove Village, IL, USA) with acoustic stimuli delivered by two calibrated MF-1 speakers in closed-field configuration (Tucker-Davis Technologies, Alachua, FL, USA). DPOAEs were recorded at fixed stimulus levels (L1=L2=70 dB SPL), with an f2/f1 ratio of 1.2. Responses were recorded at 4, 8, 16, 24 and 32 kHz.
(§3) Animals were exposed to 121 dB octave band noise (8-16 kHz) for 2 h in groups of 4 rats, placed in individual compartments of a custom built circular cage placed on a 30 cm diameter platform rotating at 3 turns/minute (Aqila Innovation, Valbonne, France). The calibrated octave band noise generated by the RZ6 SigGen software was further amplified by a Crown D-75 amplifier in bridge mode (Crown Audio, Elkhart, IN, USA) and delivered by four Beyma CP16 compression tweeters (Acustica Beyma S. L., Moncada, Valencia, Spain) positioned 39 cm above the rotating platform, each 10 cm from the platform center.
(§4) Animals were treated by intraperitoneal injection daily for 14 days beginning immediately after acoustic trauma induction and subsequently repeated every 24 hours. The setron compounds granisetron HCl, ondansetron HCl, tropisetron HCl and azasetron HCl (Tocris Bioscience, Bristol, UK) were delivered dissolved in saline solution (1.6 mL/kg) while Tacrolimus (Selleck Chemicals, Houston, TX, USA) was dissolved in solution composed of 10% ethanol-100%/10% Kolliphor EL/1% Tween 80/79% saline (1.0 mL/kg). Placebo treated animals received injections of 1.6 mL/kg saline following the same treatment schedule.
(§5) Statistical analysis was performed using two-way ANOVA (Audiometry data: frequency and treatment group. Cochleograms: normalized distance from apex and treatment group) followed by Holm-Sidak post-hoc test for multiple comparisons. Results are given as mean±SEM and a p value less than or equal to 0.05 considered significant.
(§6) Baseline line audiometry (ABR and DPOAE measures) was performed for each animal 3 days before acoustic trauma was induced. Subsequently, audiometry measures were repeated 24 h and 14 days after acoustic trauma.
(§7) To quantify and compare the difference in treatment effects between groups while taking into account individual baseline and trauma variability, the hearing loss (ABR threshold shift & DPOAE amplitude loss) at D14 relative to baseline, as well as the functional recovery of hearing from 24 h to D14 (ABR threshold shift & DPOAE amplitude loss) were determined for all treatment groups.

calcineurin = assay: Calcineurin phosphatase activity in cerebellar granule neurons after 4 DIV (malachite green colorimetric assay, Test A); format: cell-based, Wistar rat; settings: for effect on calcineurin phosphatase activity: CGNs in K25 medium, 10, 100 or 1000 nM for 4 DIV, relative to K25 control (100%); for change of calcineurin inhibition with increasing concentration: CGNs, 4 DIV, 10-1000 nM
Procedure: According to Test A, phosphatase calcineurin activity is assessed in cerebellar granule neurons (CGNs) using a colorimetric assay kit based on quantification of the green complex formed between malachite green, molybdate and free phosphate released. CGNs are detached from plates, for example by scraping, rinsed in ice-cold tris buffer solution (TBS) and counted. About 10 million cells are lysed in 1 ml of the provided lysis buffer and centrifuged at 150,000×g at 4° C. for 45 min, and the supernatant may be stored at −70° C. until analysis. Prior to calcineurin activity assay, free phosphate and nucleotides are removed from cellular extract by gel filtration. To ensure the complete removal of phosphate, malachite green reagent may be added, which will turn the color green in presence of phosphate. A specific calcineurin substrate is added to phosphate-free cellular extracts and after appropriate incubation period, malachite green reagent is applied. The rapid green color formation from the reaction is measured, for example on a spectrophotometer. The developed color is proportional to the calcineurin phosphatase activity of samples. Absorbance values, read at 620 nm, may thus be transformed to percentage calcineurin activity relative to K25 control treatment (100%). Cerebellar granule cells were dissociated from the cerebellae of 7-day-old Wistar rat pups as described (Kramer et al. 2003, Mol Cell Neurosci 23:325-330). Briefly, the cerebellae were removed, rinsed in HBSS-BSA, minced, digested with 0.025% trypsin and incubated at 37° C. for 15 min. To stop the digestion, DMEM containing 10% fetal calf serum was added; then a single cell suspension was obtained through pipetting up and down the sedimented tissue. Following centrifugation, cells were counted using trypan blue exclusion test in a Burker chamber. This method is based on the ability of viable cells to exclude trypan blue due to their intact cell membranes, leaving them unstained while nonviable cells take up the dye. Cells at 3.2×10^5/cm^2 were seeded in DMEM Hepes modification supplemented with 10% fetal calf serum, 100 μg/ml pyruvate, and 100 μg/ml gentamicin on Polystyrene 12-well tissue culture plates (CELLSTAR) coated with poly-L-lysine. After 24 h, 10 μM cytosine arabinofuranoside was added to inhibit the growth of non-neuronal cells. All pharmacological interventions begun at this time in the culture medium containing 25 mM KCl (K25), which caused depolarization of granule cells and consequently activated gene expression machinery. Moreover, the viability of granule neurons was higher in this milieu and therefore provides the possibility to maintain cells for several days. Indeed, 25 mM KCl is required in the medium for CGN cultures to maintain adequate calcineurin activity and cell maturation and depolarization (Kramer et al., 2003, Mol Cell Neurosci 23:325-330; Vallano et al. 2006, Neuropharmacology 50: 651-660). Cultures received simple medium (K25 control) or medium containing a setron compound in HCl salt form (Tocris Bioscience, Bristol, UK) at concentrations of 10 nM, 100 nM or 1000 nM for 4 days in vitro (DIV). Phosphatase calcineurin activity was assessed in CGNs using a colorimetric assay kit based on quantification of the green complex formed between malachite green, molybdate and free phosphate released. CGNs were detached from plates by scraping, rinsed in ice-cold tris buffer solution (TBS) and counted. About 10 million cells are lysed in 1 ml of the provided lysis buffer and centrifuged at 150,000×g at 4° C. for 45 min, and the supernatant was stored at −70° C. until analysis. Prior to calcineurin activity assay, free phosphate and nucleotides were removed from cellular extract by gel filtration. To ensure the complete removal of phosphate, malachite green reagent was added, which will turn the color green in presence of phosphate. […]

[2] = system: acoustic trauma induced hearing loss; assay: Auditory brainstem response (ABR) thresholds after acoustic trauma; format: in vivo, Wistar rats; settings: for ABR threshold recovery from 24 h to day 14 compared to placebo / hearing outcomes (ABR thresholds and DPOAE amplitudes) at 14 days after acoustic trauma compared to placebo: i.p. daily for 14 days after acoustic trauma, same doses as E4; for ABR threshold shift from baseline to day 14 compared to placebo: i.p. daily for 14 days from immediately after 121 dB trauma, azasetron HCl 4.22, ondansetron HCl 4, tropisetron HCl 3.5, granisetron HCl 3.8, Tacrolimus 1.5 mg/kg
Procedure: as §1, §2
For ABR recordings, three stainless steel needle electrodes were placed subdermally over the vertex, the right mastoid and right hind leg of each animal. Tone-pips (5 msec duration presented at a rate of 21/s) at 8, 16 and 24 kHz were delivered to the right ear using a calibrated MF-1 speaker in closed-field configuration (Tucker-Davis Technologies, Alachua, FL, USA) at attenuating intensity until no reproducible response could be recorded. Close to the ABR threshold, the responses to 1000 acoustic stimuli in 5 dB steps were averaged. Responses were low-pass filtered at 3 kHz.
as §3, §4, §5, §6, §7

outer hair cells = assay: Outer hair cell loss (cytocochleograms) in cochleae fixed at D14 after acoustic trauma; format: in vivo, Wistar rats; settings: cochleae fixed after audiometry on day 14
Procedure: as §3, §4
After audiometry on day 14, animals were deeply anaesthetized with an intraperitoneal injection of pentobarbital (100 mg/kg). The cochleae were removed, fixed with 4% paraformaldehyde, pH 7.4, decalcified with 10% EDTA, pH 7.4 and then stained with myosin VIIa 1/1000. […] The mean loss of OHCs per group was subsequently calculated as a function of normalized distance from the apex in bins of 2.5% of the total length, using the total length of each histological specimen. Cell counts could reliably be obtained for up to 90% of the total distance from the apex (corresponding to the tonotopic region up to from 0 kHz to ~50 kHz in rat, Viberg & Canlon 2004), while the last 10% was too variable due to damage incurred during dissection.
as §5
To further support the conclusions from the functional audiometry data, the loss of outer hair cells in four treatment group was determined by constructing cytocochleograms from histological preparations of cochleae fixed after audiometry on day 14.

[3] = Animal deaths during 14-day repeated treatment in the acoustic trauma study; format: in vivo, Wistar rats; settings: Tacrolimus 1.5 mg/kg i.p. daily for 14 days
Procedure: as §1, §4, §6
FIGS. 2 & 3 illustrate the audiometry measures (ABR thresholds and DPOAE amplitudes) determined for all treatment groups at baseline, 24 h and 14 days after acoustic trauma. For ABR thresholds exceeding 90 dB, a maximal value of 95 dB was attributed. […]

[4] = system: noise-induced hearing loss; settings: Uemaetomari et al. 2005; Bas et al. 2009; cited from earlier work
[5] = day 14, i.p. daily for 14 days after acoustic trauma

Compound | effect on calcineurin phosphatase activity (calcineurin) | DPOAE amplitude loss from baseline to day 14 compared to placebo [1] | recovery of DPOAE amplitudes from 24 h post trauma to day 14 compared to placebo [1] | DPOAE amplitude loss from baseline to day 14 compared to placebo ([1]; listed as tropisetron) | change of calcineurin inhibition with increasing concentration (calcineurin) | ABR threshold recovery from 24 h to day 14 compared to placebo [2] | hearing outcomes (ABR thresholds and DPOAE amplitudes) at 14 days after acoustic trauma compared to placebo [2] | ABR threshold shift from baseline to day 14 compared to placebo [2] | mean loss of outer hair cells compared to placebo (outer hair cells) | animals that died between treatment initiation and end of the study [3] | effect on hearing loss in pre-clinical models of noise-induced hearing loss [4] | reduction of DPOAE amplitudes loss compared to placebo treatment [1, 5] | reduction of ABR threshold shifts compared to placebo treatment [2, 5] | DPOAE amplitude loss from baseline to day 14 compared to placebo ([1]; listed as granisetron) | mean loss of outer hair cells compared to placebo (outer hair cells; listed as granisetron)
C=CC[C@@H]1/C=C(\C)C[C@H](C)C[C@H](OC)[C@H]2O[C@@](O)(C(=O)C(=O)N3CCCC[C@H]3C(=O)O[C@H](/C(C)=C/[C@@H]3CC[C@@H](O)[C@H](OC)C3)[C@H](C)[C@@H](O)CC1=O)[C@H](C)C[C@@H]2OC [tacrolimus] | – | trend towards reduced loss of DPOAE amplitude; also recorded: trends towards improving DPOAE amplitude loss at some frequencies | improved recovery | – | – | – | improvement at some frequencies | no major effect | Neither the granisetron HCl nor the tacrolimus treated groups were significantly different from placebo | 5 animals out of 11 | reduce hearing loss | – | – | – | –
CN1C2CCCC1CC(NC(=O)c1nn(C)c3ccccc13)C2 (stereo not drawn) [granisetron HCl] | no effect | trend towards increased DPOAE amplitude loss | reduced recovery | – | – | decreased threshold recovery | worse ABR thresholds and DPOAE amplitudes | strong trends towards higher ABR threshold shifts | Neither the granisetron HCl nor the tacrolimus treated groups were significantly different from placebo | – | – | – | – | trend towards worse DPOAE amplitudes | trend towards worse
cyclosporine A | – | – | – | – | – | – | – | – | – | – | reduce hearing loss | – | – | – | –

Continued, in another order:

effect on calcineurin phosphatase activity (calcineurin) | Compound | DPOAE amplitude loss from baseline to day 14 compared to placebo [1] | recovery of DPOAE amplitudes from 24 h post trauma to day 14 compared to placebo [1] | DPOAE amplitude loss from baseline to day 14 compared to placebo ([1]; listed as tropisetron) | change of calcineurin inhibition with increasing concentration (calcineurin) | ABR threshold recovery from 24 h to day 14 compared to placebo [2] | hearing outcomes (ABR thresholds and DPOAE amplitudes) at 14 days after acoustic trauma compared to placebo [2] | ABR threshold shift from baseline to day 14 compared to placebo [2] | mean loss of outer hair cells compared to placebo (outer hair cells) | animals that died between treatment initiation and end of the study [3] | effect on hearing loss in pre-clinical models of noise-induced hearing loss [4] | reduction of DPOAE amplitudes loss compared to placebo treatment [1, 5] | reduction of ABR threshold shifts compared to placebo treatment [2, 5] | DPOAE amplitude loss from baseline to day 14 compared to placebo ([1]; listed as granisetron) | mean loss of outer hair cells compared to placebo (outer hair cells; listed as granisetron)
significantly inhibited | CN1[C@@H]2CC[C@H]1C[C@@H](OC(=O)c1c[nH]c3ccccc13)C2 [tropisetron HCl] | trend towards increased DPOAE amplitude loss | reduced recovery | trend towards worse DPOAE amplitudes | increased to different degree with increasing concentrations | decreased threshold recovery | worse ABR thresholds and DPOAE amplitudes | strong trends towards higher ABR threshold shifts | trend towards worse | – | – | – | – | – | –
significantly inhibited | Cc1nccn1CC1CCc2c(c3ccccc3n2C)C1=O (stereo not drawn) [ondansetron HCl] | trend towards reduced loss of DPOAE amplitude | improved recovery | – | decreased with increasing concentration | – | improvement at some frequencies | lower ABR threshold shift | – | – | – | 10-30% | 10-30% | – | –
significantly inhibited | Cn1cc(C(=O)[C@@H]2CCc3nc[nH]c3C2)c2ccccc21 [ramosetron HCl] | – | – | – | increased to different degree with increasing concentrations | – | – | – | – | – | – | – | – | – | –
